How the values were obtained:
[1] = stability test of aqueous solution, ratio of compound remaining after storage (HPLC); type: physicochemical; details: 2 mass % in purified water, glass bottle, 40° C., light-shielding, 10 days
Experimental: (under light-shielding condition) for 10 days. The ratio of the compound remaining after the storage was analyzed by using a high-performance liquid chromatograph equipped with Shodex (registered trademark of Showa Denko K.K.) SB802.5 HQ (mfd. by Showa Denko K.K.) column.
(Measurement Conditions for High-Performance Liquid Chromatography)

[2] = system: guinea pig incised wound; assay: collagen synthesis-accelerating effect in guinea pig model system having an incised wound; type: in vivo; details: for Detachment tension / Hydroxyproline content: 0.2 ml test solution twice a day for four days (1) 2%; 2) and 3) 1%); for Detachment tension: incised wound on back; for Hydroxyproline content: skin section with incised wound, index of collagen; for effect on collagen synthesis and recovery of incised wound (in words): guinea pig incised wound
Description: The collagen synthesis-accelerating effects of the following 1) to 3) test substances was compared with each other, by using a guinea pig model system having an incised (or cut) wound. The base material for dissolving each test substance was purified water containing 20% of ethanol, and 3% of propylene glycol. In this experiment, two incised wounds each having a length of 2 cm were formed on the back of a guinea pig by using a scalpel, so that the incised wounds are positioned symmetrically with regard to the center portion of the back. Then, 0.2 ml of the test substance solution was administered thereto twice a day, for four days. After the last administration was completed, a skin piece of 2 cm×2 cm (square shape) was surgically removed from the back of the guinea pig, so that the incised wound portions were positioned substantially at the center of the skin piece. Then, the tension required for the detachment of the incised wound surface was measured. Five guinea pigs were used with respect to one kind of the test substances. […] After the separation thereof by centrifugation, the resultant supernatant was freeze-dried. The protein content of the thus obtained skin sample was hydrolyzed with hydrochloric acid, and was subjected to amino acid analysis by use of AccQ.Tag Amino acid Analyzer (mfd. by Waters Co.). The results of the detachment tension measurement for the incised wound portion to which each test substance had been applied, and the hydroxyproline content thereof were as follows. Herein, the hydroxyproline is a substance which can be taken as an index of collagen.

[3] = system: human skin tissue three-dimensional model (TESTSKIN LSD-d); assay: amount of ascorbic acid in human skin tissue three-dimensional model after application of test solution; type: cell-based; details: for amount of the ascorbic acid, 2 hours after culture / amount of the ascorbic acid, 6 hours after culture / amount of the ascorbic acid, 12 hours after culture: 40 μL test solution in Dulbecco PBS(−) applied 2 h (1) 2%; 2) and 3) 0.5%), removed; for amount of the ascorbic acid, 2 hours after culture: then cultured 2 hours; for amount of the ascorbic acid, 6 hours after culture: then cultured 6 hours; for amount of the ascorbic acid, 12 hours after culture: then cultured 12 hours; for concentration of ascorbic acid in the tissue (in words): administered to the skin model
Experimental: To the surface of a human skin tissue three-dimensional model (trademark: TESTSKIN LSD-d, mfd. by Toyobo Co., Ltd.), 40 μL of a solution which had been obtained by dissolving each of the substances (1) to (3) to be tested in Dulbecco PBS (−), and the resultant skin tissue model was cultured at 37° C. in the presence of 5% CO2 for two hours. Then, the test solution was removed by aspiration, and thereafter the skin tissue model was cultured at 37° C. in the presence of 5% CO2 for 2, 6 and 12 hours, respectively.
Each of the portions of the skin model which had been sampled at each culture time was washed with Dulbecco PBS (−), the surface portion was punched out by using a punch having a diameter of 6 mm φ, and homogenized in a HEPES buffer solution (pH 7.2) to obtain a homogenate. By use of the thus obtained homogenate, the amount of the ascorbic acid contained in the skin model was quantitatively analyzed by using a high performance liquid chromatography. The protein content in the skin model was quantitatively analyzed by using the Lowry method.
Measurement Conditions for High Performance Liquid Chromatography

| SMILES | Residual Ratio (%) [1] [%] | Detachment tension [2] [g/cm] | Hydroxyproline content [2] [nmol/skin wet weight] | amount of the ascorbic acid, 2 hours after culture [3] [nmol/mg skin protein] | amount of the ascorbic acid, 6 hours after culture [3] [nmol/mg skin protein] | amount of the ascorbic acid, 12 hours after culture [3] [nmol/mg skin protein] | concentration of ascorbic acid in the tissue (in words) [3] | effect on collagen synthesis and recovery of incised wound (in words) [2] |
| --- | --- | --- | --- | --- | --- | --- | --- | --- |
| CCCCCCCCCCCCCCCC(=O)OC[C@H](O)[C@H]1OC(=O)C(OP(=O)(O)O)=C1O.[Na] [Comparative Example A-1, L-ascorbic acid-2-phosphoric acid-6-palmitatic acid ester sodium salt, reference compound] | 88.6 | – | – | – | – | – | – | – |
| O=C1O[C@H]([C@@H](O)CO)C(O)=C1OP(=O)([O-])[O-].[Na+].[Na+] [Comparative Example A-2, L-ascorbic acid-2-phosphate sodium salt, reference compound] | 96.9 | 123 | 32.1 | – | – | – | – | – |
| CCCCCCCCC(CCCCCC)C(=O)OC[C@H](O)[C@H]1OC(=O)C(OP(=O)(O)O)=C1O.[Na] (stereo partly drawn) [Example A-1, L-Ascorbic acid-2-phosphoric acid-6-(2′-hexyldecanoate) sodium salt] | 95.3 | 181 | 38.5 | 6 | 10 | 23 | concentration of the ascorbic acid in the tissue could easily be enhanced effectively | had an effect of accelerating the collagen synthesis |
| CCCCCCCCCC(CCCCCCC)C(=O)OC[C@H](O)[C@H]1OC(=O)C(OP(=O)(O)O)=C1O.[Na] (stereo partly drawn) [Example A-2, L-Ascorbic Acid-2-Phosphoric Acid-6-(2′-n-Heptylundecanoate) sodium salt] | 95.5 | 187 | 37.6 | 5 | 11 | 26 | concentration of the ascorbic acid in the tissue could easily be enhanced effectively | had an effect of accelerating the collagen synthesis |
